The target of the assay is T1, VFT2 domain of BvgS (Bordetella pertussis, UniProt P16575).
T1 construct: His tag from pColdII (no GB1)
Nature of the assay: isothermal titration calorimetry. It counts as binding. As to conditions: 50 mM sodium phosphate, pH 7.4; 300 µM lonidamine into 20 µM VFT2.

The values that follow come from publication PMC11873758, “Lonidamine, a Novel Modulator for the BvgAS System of Bordetella Species” (Microbiology and Immunology, 2024).

Each structure is given as a SMILES string.

T1 sequence (P16575 290-541): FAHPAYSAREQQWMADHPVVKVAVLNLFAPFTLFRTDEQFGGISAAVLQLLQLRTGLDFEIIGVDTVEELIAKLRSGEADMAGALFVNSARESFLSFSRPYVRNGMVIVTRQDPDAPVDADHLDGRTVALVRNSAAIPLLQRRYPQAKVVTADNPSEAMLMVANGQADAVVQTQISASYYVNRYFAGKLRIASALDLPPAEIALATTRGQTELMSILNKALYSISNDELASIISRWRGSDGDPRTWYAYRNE

In the case of `O=C(O)c1nn(Cc2ccc(Cl)cc2Cl)c2ccccc12` [#5, 1‐(2,4‐dichlorobenzyl)‐1H‐indazole‐3‐carboxylic acid], the isothermal titration calorimetry result was “ITC revealed that lonidamine bound to VFT2 but not VFT1”.
